Laboratory results reported in US12146155B2, “Method for constructing human pluripotent stem cell-derived liver organoid having enhanced drug metabolic potential and liver organoid constructed by same method” (KOREA RESEARCH INSTITUTE OF CHEMICAL TECHNOLOGY, priority 2021, dated 2024).

Tests used:
[1] = system: hiPSC-derived cardiomyocytes (hiPSC-CMs) co-cultured with FC-treated S(−)-HO
Procedure: (§1) Specifically, the electrical activity of Cardiosight®-S (NEXEL Co., South Korea), the hiPSC-CM, was measured using an MEA system (Axion BioSystems, Maestro, US) at 37° C. and perfused with 5% CO2, 20% O2, and 75% N2. The hiPSC-CMs were first seeded in a 12-well MEA plate at the density of 4×10^4 cells per well and maintained for 7 days in a cardiomyocyte culture medium provided by NEXEL Co. to stabilize with half-mid changes performed every 2 days. One week later, the culture medium was replaced with a liver organoid differentiation medium (DM). Transwell inserts (Corning) were then placed in each well, and FC-treated S(−)-HO was seeded in the inserts, followed by culture for 3 days. On the day of compound application, the culture medium was completely removed from the wells and inserts and fresh medium was added to ensure the correct volume per well (2 m ? /well total). Cells were allowed to equilibrate for 4 hours, and online parameters were monitored to ensure a stable baseline for at least 40 minutes. The cells were exposed to cyclophosphamide at a single dose per well. After application of the drug or control (0.1% DMSO), field potentials were measured every 5 minutes for 30 seconds for 72 hours. The field potential signals were recorded and analyzed using Axion BioSystems' integrated studio (AxIS) software to measure the beating frequency and field potential duration. […]

[2] = system: hiPSC-CM not cultured with liver organoids; test: MEA electrophysiology of hiPSC-CMs without liver organoids; assay type: cell-based, human
Procedure: as §1

[3] = system: HepG2; test: Fimasartan metabolite formation (LC-MS/MS); assay type: in vitro ADME, human; details: 50 μM FMS for 24 hours
Procedure: 70 μ ? of medium was collected at 3, 6, 12 and 24 hours, respectively, and the reaction was quenched by adding 70 μ ? of ice-cold ACN containing 100 nM BR-A-563 as an internal standard. The samples were centrifuged at 16,000 g for 10 minutes at 4° C. and the supernatant was applied to liquid chromatography-tandem mass spectrometry (LC-MS/MS). Data were normalized to protein concentration.

[4] = molecular target: T1, MRP2 (Homo sapiens, UniProt Q92887); test: CDFDA staining of liver organoids with or without transporter inhibitor; assay type: cell-based; details: 2 mM probenecid for 3 hours; D(−)-HO and S(−)-HO
T1 construct: endogenous in cells; host or cells: human iPSC-derived liver organoids (D(−)-HO, S(−)-HO)
Procedure: Specifically, the liver organoids were recovered on Matrigel and washed three times with DPBS. For CDFDA (5(6)-carboxy-2′,7′-dichlorofluorescein diacetate) staining, the liver organoids treated with or without 2 mM probenecid for 3 hours were stained with 10 μM CDFDA (Sigma-Aldrich) for 15 minutes at 37° C., 5% CO2. […] All samples were washed three times with DPBS, stained with Hoechst 33342, and observed under an Olympus FV3000 confocal microscope.

[5] = system: HepG2 and 2D HLC; test: Acetaminophen metabolite formation (LC-MS/MS); assay type: in vitro ADME, human; details: 10 mM APAP
Procedure: Specifically, to measure the metabolites of APAP, reactions were performed in PHH, D-HO, S-HO, HepG2, and 2D HLC treated with 10 mM APAP for 24 hours at 37° C. in 5% CO2. APAP was treated to a final volume of 0.7 m ? per well in each 24-well culture plate. 70 μ ? of medium was collected at 3, 6, 12 and 24 hours, respectively, and the reaction was quenched by adding 70 μ ? of ice-cold ACN containing 100 nM BR-A-563 as an internal standard. The samples were centrifuged at 16,000 g for 10 minutes at 4° C. and the supernatant was applied to liquid chromatography-tandem mass spectrometry (LC-MS/MS). Data were normalized to protein concentration.

T1 sequence (Q92887 whole entry): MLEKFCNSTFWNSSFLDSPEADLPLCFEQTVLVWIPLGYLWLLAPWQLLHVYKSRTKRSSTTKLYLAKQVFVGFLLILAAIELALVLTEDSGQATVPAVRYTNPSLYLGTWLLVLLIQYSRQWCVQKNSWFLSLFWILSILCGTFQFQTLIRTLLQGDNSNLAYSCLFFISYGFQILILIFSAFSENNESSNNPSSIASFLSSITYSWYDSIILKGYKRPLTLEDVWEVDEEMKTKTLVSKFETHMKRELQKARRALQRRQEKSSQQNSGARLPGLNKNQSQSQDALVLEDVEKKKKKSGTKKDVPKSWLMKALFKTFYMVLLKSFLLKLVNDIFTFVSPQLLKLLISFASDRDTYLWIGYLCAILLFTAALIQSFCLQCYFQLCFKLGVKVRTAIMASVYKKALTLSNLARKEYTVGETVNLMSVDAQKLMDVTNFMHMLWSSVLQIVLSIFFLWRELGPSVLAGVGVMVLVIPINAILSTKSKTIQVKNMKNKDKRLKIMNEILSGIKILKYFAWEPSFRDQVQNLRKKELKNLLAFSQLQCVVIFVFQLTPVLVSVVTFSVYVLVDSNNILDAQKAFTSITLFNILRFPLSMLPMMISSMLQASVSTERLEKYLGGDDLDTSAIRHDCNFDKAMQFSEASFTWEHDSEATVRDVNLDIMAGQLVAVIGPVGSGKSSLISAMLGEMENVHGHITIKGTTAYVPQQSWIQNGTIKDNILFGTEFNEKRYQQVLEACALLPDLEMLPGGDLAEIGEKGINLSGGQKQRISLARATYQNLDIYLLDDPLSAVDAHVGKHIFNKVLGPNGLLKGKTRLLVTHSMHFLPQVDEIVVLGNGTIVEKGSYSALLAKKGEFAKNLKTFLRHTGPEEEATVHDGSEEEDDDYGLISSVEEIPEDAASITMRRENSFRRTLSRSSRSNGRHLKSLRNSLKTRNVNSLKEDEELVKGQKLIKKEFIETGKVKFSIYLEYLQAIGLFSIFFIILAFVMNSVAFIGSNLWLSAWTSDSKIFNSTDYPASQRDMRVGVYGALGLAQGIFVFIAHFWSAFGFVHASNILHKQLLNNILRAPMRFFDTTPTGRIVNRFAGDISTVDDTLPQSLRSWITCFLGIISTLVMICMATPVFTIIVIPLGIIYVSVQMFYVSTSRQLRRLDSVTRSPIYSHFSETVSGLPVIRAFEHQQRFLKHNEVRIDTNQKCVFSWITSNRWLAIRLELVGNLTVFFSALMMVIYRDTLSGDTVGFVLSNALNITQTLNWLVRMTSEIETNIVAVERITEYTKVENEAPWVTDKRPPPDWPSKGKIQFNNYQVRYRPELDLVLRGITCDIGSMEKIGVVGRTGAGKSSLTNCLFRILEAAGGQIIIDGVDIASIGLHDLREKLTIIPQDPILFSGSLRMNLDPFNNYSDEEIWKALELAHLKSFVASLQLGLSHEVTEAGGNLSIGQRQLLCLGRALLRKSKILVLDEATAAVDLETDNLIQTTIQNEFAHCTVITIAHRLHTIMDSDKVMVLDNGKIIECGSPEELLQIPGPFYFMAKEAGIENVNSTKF

O=P1(N(CCCl)CCCl)NCCCO1 (stereo not drawn) [CP, Cyclophosphamide]
field potential duration corrected by beating frequency (FPDcF) ([1]; 250 μM, after 24 and 72 hours): increased
beating rate ([1]; 250 and 500 μM for 24 and 72 hours, compared to hiPSC-CM alone): significantly reduced

CC(C)(C)c1ccc(C(O)CCCN2CCC(C(O)(c3ccccc3)c3ccccc3)CC2)cc1 (stereo not drawn) [terfenadine, Terfenadine]
time to spontaneous beating cessation after addition [2]: ≤ 30 min

CCCCc1nc(C)c(CC(=S)N(C)C)c(=O)n1Cc1ccc(-c2ccccc2-c2nnn[nH]2)cc1 [FMS, Fimasartan]
production of BR-A-535, a 3-step metabolite of FMS by CYP3A4 [3]: not observed

CCCN(CCC)S(=O)(=O)c1ccc(C(=O)O)cc1 [probenecid]
MRP2-specific fluorescence (CDFDA) when transporter blocked [4]: accumulated in the lumen of the liver organoids

CC(=O)Nc1ccc(O)cc1 [acetaminophen, Acetaminophen]
APAP-GSH amount of metabolites [5]: no metabolites were detected
